Holding throughout (format): cell-based
Assay [1] relates to HL-60 (AML) cell line. In words: CellTiter-Glo (CTG) cell viability, HL-60. The conditions noted are these: for single agent activity (figure legend): HL-60, FIGS. 9-11, 72 h. As for the experimental part:
(§1) 20,000 MDA-MB-231 cells were incubated in a 96 well plate as a triplicate with 500 nM of ZN-c3 and 10 nM of CHK inhibitor or 700 nM of ATR inhibitor as a single agent or the combination of both for 72 h. 20,000 H23 cells were incubated in a 96 well plate as a triplicate with 150 nM of ZN-c3 and 5 nM of CHK inhibitor or 500 nM of ATR inhibitor as a single agent or the combination of both for 72 h. 10,000 MV4-11 cells were incubated in a 96 well plate as a triplicate with 400 nM of ZN-c3 and 2 nM of CHK inhibitor or 2000 nM of ATM inhibitor as a single agent or the combination of both for 72 h. 20,000 THP-1 cells were incubated in a 96 well plate as a triplicate with 600 nM of ZN-c3 and 4 nM of CHK inhibitor or 1000 nM of ATR inhibitor as a single agent or the combination of both for 72 h. 10,000 HL-60 cells were incubated in a 96 well plate as a triplicate with 750 nM of ZN-c3 and 15 nM of CHK inhibitor or 2000 nM of ATM inhibitor as a single agent or the combination of both for 72 h. 10,000 LNCaP cells were incubated in a 96 well plate as a triplicate with 500 nM of ZN-c3 and 10 nM of CHK inhibitor or 1000 nM of ATM inhibitor as a single agent or the combination of both for 72 h. For each cell line, the cell viability was assessed using a CellTiter-Glo® (CTG) assay.
(§2) 10,000 MV4-11 cells were incubated in a 96 well plate as a triplicate with 2 nM of ZN-d5, 400 nM of ZN-c3 and 2 nM of CHK inhibitor or 2000 nM of ATM inhibitor or 150 nM of ATR inhibitor as a single, double or triple combination for 72 h. 20,000 THP-1 cells were incubated in a 96 well plate as a triplicate with 100 nM of ZN-d5, 600 nM of ZN-c3 and 4 nM of CHK inhibitor or 1000 nM of ATM inhibitor or 1000 nM of ATR inhibitor as a single, double or triple combination for 72 h. 10,000 HL-60 cells were incubated in a 96 well plate as a triplicate with 75 nM of ZN-d5, 750 nM of ZN-c3 and 15 nM of CHK inhibitor or 2000 nM of ATM inhibitor or 1000 nM of ATR inhibitor as a single, double or triple combination for 72 h. For each cell line, the cell viability was assessed using a CellTiter-Glo® (CTG) assay.
In general terms: In ATP-based viability assays light output follows the ATP content of the culture.

The test system of assay [2] is THP-1 (AML) cell line. In words: CellTiter-Glo (CTG) cell viability, THP-1. The conditions noted are these: for single agent activity (figure legend): THP-1, FIGS. 7-8, 72 h. As for the experimental part: as §1, §2
For assay [3], the system named is LNCaP (Prostate) cell line. In words: CellTiter-Glo (CTG) cell viability, LNCaP. The conditions noted are these: for single agent activity (figure legend): FIGS. 12-13, 72 h. On the procedure: as §1
Assay [4] has as its system MV4-11 (AML) cell line. As to the kind of experiment: CellTiter-Glo (CTG) cell viability, MV4-11. Particulars: for single agent activity (figure legend): MV4-11, FIGS. 5-6, 72 h. On the procedure: as §1, §2
Assay [5] deals with MDA-MB-231 (TNBC) cell line. As to the kind of experiment: CellTiter-Glo (CTG) cell viability, MDA-MB-231. The conditions noted are these: for single agent activity (figure legend): MDA-MB-231, FIGS. 1-2, 72 h. As for the experimental part: as §1
Assay [6] concerns H23 (NSCLC) cell line. In words: CellTiter-Glo (CTG) cell viability, H23. Particulars: for single agent activity (figure legend): H23, FIGS. 3-4, 72 h. On the procedure: as §1
Setting [7] is: Table 4, 75 nM ZN-d5, 750 nM ZN-c3, 15 nM CHK inhibitor, 2000 nM ATM inhibitor, 1000 nM ATR inhibitor, single, double or triple combination, 72 h.
The mark [8] stands for this setting: Table 4, 100 nM ZN-d5, 600 nM ZN-c3, 4 nM CHK inhibitor, 1000 nM ATM inhibitor, 1000 nM ATR inhibitor, single, double or triple combination, 72 h.
[9] abbreviates: Table 4, 2 nM ZN-d5, 400 nM ZN-c3, 2 nM CHK inhibitor, 2000 nM ATM inhibitor, 150 nM ATR inhibitor, single, double or triple combination, 72 h.
Where [10] appears, read: Table 1, 500 nM ZN-c3, 10 nM CHK inhibitor, single agent or combination, 72 h.
Where [11] appears, read: Table 1, 150 nM ZN-c3, 5 nM CHK inhibitor, single agent or combination, 72 h.
The mark [12] stands for this setting: Homo sapiens, HL-60, 72 h, Table 4, 75 nM ZN-d5, 750 nM ZN-c3, 15 nM CHK inhibitor, 2000 nM ATM inhibitor, 1000 nM ATR inhibitor, single, double or triple combination, 72 h, read-out: HL60 % Inhibition.
[13] abbreviates: Homo sapiens, THP-1, 72 h, Table 4, 100 nM ZN-d5, 600 nM ZN-c3, 4 nM CHK inhibitor, 1000 nM ATM inhibitor, 1000 nM ATR inhibitor, single, double or triple combination, 72 h.
The mark [14] stands for this setting: Homo sapiens, MV4-11, 72 h, Table 4, 2 nM ZN-d5, 400 nM ZN-c3, 2 nM CHK inhibitor, 2000 nM ATM inhibitor, 150 nM ATR inhibitor, single, double or triple combination, 72 h.

Like-named read-outs stand apart in the source and are kept apart here.

As for `CN(C)CCCOc1ccc(-c2ccc3ncc4c(c3c2)n(C2CCOCC2)c(=O)n4C)cn1` [ATMi, AZD0156], the “single agent activity (figure legend)” value in assay [1] is “practically no activity”; in assay [2], “single agent activity was observed”; in assay [3] (LNCaP), “single agent activity was observed”; in assay [4], “single agent activity was observed”. Further, the “HL60 % Inhibition” value in assay [1] (Table 3, 750 nM ZN-c3, 2000 nM ATM inhibitor, single agent or combination, 72 h) came out at 3%; in assay [1] (setting [7]), 2.95%. Also, in assay [2] (setting [8]), the “THP % Inhibition” value stood at 19.52%. In addition, the “LNCaP % Inhibition” value in assay [3] (Table 3, 500 nM ZN-c3, 1000 nM ATM inhibitor, single agent or combination, 72 h) was determined as 14%. For the same compound, the “MV4; 11 % Inhibition” value in assay [4] (Table 3, 400 nM ZN-c3, 2000 nM ATM inhibitor, single agent or combination, 72 h) stood at 18%; in assay [4] (setting [9]) it was 18.48%.
`COc1cccc(OCCCN)c1-c1cc(Nc2cnc(C#N)cn2)n[nH]1` [CHKi, Prexasertib]: the “single agent activity (figure legend)” value is “no activity” in assay [1]; “single agent activity was observed” in assay [5]; “practically no activity” in assay [6]; “single agent activity was observed” in assay [3] (LNCaP); “no activity” in assay [4]. Also, the “HL60 % Inhibition” value was determined as 0% in assay [1] (Table 1, 750 nM ZN-c3, 15 nM CHK inhibitor, single agent or combination, 72 h) and 0% in assay [1] (setting [7]). For the same compound, the “THP % Inhibition” value is given as 32% in assay [2] (Table 1, 600 nM ZN-c3, 4 nM CHK inhibitor, single agent or combination, 72 h) and 32.29% in assay [2] (setting [8]). For the same compound, in assay [5] (setting [10]), the “MDA-MB-231 % Inhibition” value was 26%. Further, the “H23 % Inhibition” value in assay [6] (setting [11]) amounted to 1%. In addition, the “LNCaP % Inhibition” value in assay [3] (setting [10]) is listed as 14%. Moreover, the “MV4; 11 % Inhibition” value is recorded as 0% in assay [4] (Table 1, 400 nM ZN-c3, 2 nM CHK inhibitor, single agent or combination, 72 h) and 0% in assay [4] (setting [9]).
A word on the inhibition: it is the drop in the measured response relative to a control, in per cent. Regarding `CNCc1ccc(-c2cc(-c3nc(-c4ccc(S(=O)(=O)C(C)C)cc4)cnc3N)on2)cc1` [ATRi, Berzosertib], the “single agent activity (figure legend)” value in assay [1], in assay [5] and in assay [6] was “single agent activity was observed” throughout. Also, the inhibition at 1 µM in assay [1] (Homo sapiens, HL-60, 72 h, Table 2, 750 nM ZN-c3, ATR inhibitor (1000 nM), single agent or combination, 72 h, read-out: HL60 % Inhibition) was 15%. Moreover, the “HL60 % Inhibition” value in assay [1] (setting [7]) worked out at 15.91%. Also, the “THP % Inhibition” value was 37% in assay [2] (Table 2, 600 nM ZN-c3, 1000 nM ATR inhibitor, single agent or combination, 72 h) and 36.93% in assay [2] (setting [8]). Also, in assay [5] (Table 2, 500 nM ZN-c3, 700 nM ATR inhibitor, single agent or combination, 72 h), the “MDA-MB-231 % Inhibition” value is 33%. The “H23 % Inhibition” value in assay [6] (Table 2, 150 nM ZN-c3, 500 nM ATR inhibitor, single agent or combination, 72 h) is recorded as 35%. Moreover, the “MV4; 11 % Inhibition” value in assay [4] (setting [9]) was determined as 13.99%.
For the compound `CC1(C)CCC(CN2CCN(c3ccc(C(=O)NS(=O)(=O)c4ccc(NC[C@H]5CC[C@](C)(O)CC5)c([N+](=O)[O-])c4)c(Oc4cnc5[nH]ccc5c4)c3)CC2)=C(C23CC(C(F)F)(C2)C3)C1` [ZN-d5, 2-((1H-pyrrolo[2,3-b]pyridin-5-yl)oxy)-4-(4-((2-(3-(difluoromethyl)bicyclo[1.1.1]pentan-1-yl)-4,4-dimethylcyclohex-1-en-1-yl)methyl)piperazin-1-yl)-N-((4-((((1r,4r)-4-hydroxy-4-methylcyclohexyl)methyl)amino)-3-nitrophenyl)sulfonyl)benzamide], in assay [1] (setting [12]), the inhibition at 0.075 µM was determined as 37.6%. For the same compound, in assay [2] (setting [13]), the inhibition at 0.1 µM turned out to be 2.6%. In addition, in assay [4] (setting [14]), the inhibition at 0.002 µM came to 8.44%.
Regarding `C=CCn1c(=O)c2cnc(Nc3ccc(N4CCN(C)CC4)cc3)nc2n1-c1ccc2c(n1)[C@@](O)(CC)CC2` [ZN-c3], the “single agent activity (figure legend)” value in assay [1], in assay [2], in assay [5], in assay [6], in assay [3] (LNCaP) and in assay [4] was “single agent activity was observed” each time. For the same compound, the inhibition at 0.75 µM in assay [1] (Homo sapiens, HL-60, 72 h, Table 1, 750 nM ZN-c3, 15 nM CHK inhibitor, single agent or combination, 72 h, read-out: HL60 % Inhibition) was found to be 25%; in assay [1] (Homo sapiens, HL-60, 72 h, Table 3, 750 nM ZN-c3, 2000 nM ATM inhibitor, single agent or combination, 72 h, read-out: HL60 % Inhibition), 25%; in assay [1] (setting [12]), 25.5%. Also, the inhibition at 0.6 µM in assay [2] (Homo sapiens, THP-1, 72 h, Table 1, 600 nM ZN-c3, 4 nM CHK inhibitor, single agent or combination, 72 h) was 18%; in assay [2] (Homo sapiens, THP-1, 72 h, Table 2, 600 nM ZN-c3, 1000 nM ATR inhibitor, single agent or combination, 72 h) it was 18%; in assay [2] (setting [13]) it was 18.1%. Also, the inhibition at 0.5 µM was found to be 35% in assay [5] (Homo sapiens, MDA-MB-231, Table 1, 500 nM ZN-c3, 10 nM CHK inhibitor, single agent or combination, 72 h) and 24% in assay [3] (Homo sapiens, LNCaP, Table 1, 500 nM ZN-c3, 10 nM CHK inhibitor, single agent or combination, 72 h). Further, in assay [6] (setting [11]), the inhibition at 0.15 µM was 22%. The inhibition at 0.4 µM in assay [4] (Homo sapiens, MV4-11, 72 h, Table 1, 400 nM ZN-c3, 2 nM CHK inhibitor, single agent or combination, 72 h) came out at 49%; in assay [4] (Homo sapiens, MV4-11, 72 h, Table 3, 400 nM ZN-c3, 2000 nM ATM inhibitor, single agent or combination, 72 h), 49%; in assay [4] (setting [14]) it was 49.2%.

(Values after US20240299395A1, “COMBINATION THERAPIES COMPRISING WEE1 INHIBITORS AND DNA DAMAGE RESPONSE (DDR) INHIBITORS” (Recurium IP Holdings, LLC, priority 2021, published 2024).)
